Our source for the IC50 values is patent publication US12202835B2, “Substituted aromatic ring-linked dioxinoquinazolines and dioxinoquinolines as kinase inhibitors” (BEIJING SCITECH-MQ PHARMACEUTICALS LIMITED, priority 2018, dated 2025).

One assay relates to MHCC97H cells. Description: Assay for inhibiting the proliferation of MHCC97H cells (CCK-8). The class given is cell-based. To be noted: Homo sapiens. The procedure, abridged: (§1)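 Cells seeded in 96-well plates overnight, then exposed 72 h to 9 three-fold dilutions of compound (0.25% DMSO final). Viability by CCK-8 (1-2 h at 37° C., OD 450 nm), survival normalized to untreated and cell-free blanks; IC50 by curve fitting.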

A further assay has as its system EBC1 cells. Description: Assay for inhibiting the proliferation of EBC1 cells (CCK-8). The following applies: Homo sapiens, EBC-1. The class given is cell-based. The method in brief:
as §1

For orientation: IC50 means the concentration that gives 50% inhibition. High values mean lower potency, low ones higher potency. For the compound `COc1ccn(-c2ccc(F)cc2)c(=O)c1C(=O)Nc1ccc(Oc2ccnc3cc(OCCCN4CCCCC4)c4c(c23)OCCO4)c(F)c1` [Example 32, N-(3-fluoro-4-((5-(3-(piperidin-1-yl)propoxy)-2,3-dihydro-[1,4]dioxino[2,3-f]quinolin-10-yl)oxy)phenyl)-1-(4-fluorophenyl)-4-methoxy-2-oxo-1,2-dihydropyridine-3-carboxamide], the IC50 was 0.05 to 0.2 µM with MHCC97H cells and not above 0.05 µM with EBC1 cells.

Turning to `COc1ccn(-c2ccc(F)cc2)c(=O)c1C(=O)Nc1ccc(Oc2ccnc3cc(OCCCN4CCOCC4)c4c(c23)OCCO4)c(F)c1` [Example 21, N-(3-fluoro-4-((5-(3-morpholinopropoxy)-2,3-dihydro-[1,4]dioxino[2,3-f]quinolin-10-yl)oxy)phenyl)-1-(4-fluorophenyl)-4-methoxy-2-oxo-1,2-dihydropyridine-3-carboxamide], the IC50 with MHCC97H cells and in the assay on EBC1 cells was not above 0.05 µM throughout.

As for `COc1cc2nccc(Oc3ccc(NC(=O)c4cn(CCCO)c(=O)n(-c5ccc(F)cc5)c4=O)cc3F)c2c2c1OCCO2` [Example 99, N-(3-fluoro-4-((5-methoxy-2,3-dihydro-[1,4]dioxino[2,3-f]quinolin-10-yl)oxy)phenyl)-3-(4-fluorophenyl)-1-(3-hydroxypropyl)-2,4-dioxo-1,2,3,4-tetrahydropyrimidine-5-carboxamide], the half-maximal inhibitory concentration (IC50) in the assay on MHCC97H cells was 0.05 to 0.2 µM; in the assay on EBC1 cells, not above 0.05 µM.

`CCOc1ccn(-c2ccc(C)cc2)c(=O)c1C(=O)Nc1ccc(Oc2ccnc3cc(OC)c4c(c23)OCCO4)c(F)c1` [Example 112, N-(3-fluoro-4-((5-methoxy-2,3-dihydro-[1,4]dioxino[2,3-f]quinolin-10-yl)oxy)phenyl)-2-oxo-4-ethoxy-1-(4-methylphenyl)-1,2-dihydropyridin-3-carboxamide]: the IC50 in the assay on MHCC97H cells is 0.2 to 1 µM; in the assay on EBC1 cells, 0.05 to 0.2 µM.

For the compound `O=C(Nc1ccc(Oc2ncnc3cc(OCCCN4CCOCC4)c4c(c23)OCCO4)c(F)c1)c1cccn(-c2ccc(F)cc2)c1=O` [Example 4, N-(3-fluoro-4-((5-(3-morpholinopropoxy)-2,3-dihydro-[1,4]dioxino[2,3-f]quinazolin-10-yl)oxy)phenyl)-1-(4-fluorophenyl)-2-oxo-1,2-dihydropyridine-3-carboxamide], the IC50 in the assay on MHCC97H cells and with EBC1 cells was not above 0.05 µM in each case.

For `COCCOc1cc2nccc(Oc3ccc(NC(=O)c4cccn(-c5ccc(F)cc5)c4=O)cc3F)c2c2c1OCCO2` [Example 34, N-(3-fluoro-4-((5-(2-methoxyethoxy)-2,3-dihydro-[1,4]dioxino[2,3-f]quinolin-10-yl)oxy)phenyl)-1-(4-fluorophenyl)-2-oxo-1,2-dihydropyridine-3-carboxamide], the IC50 in the assay with MHCC97H cells and with EBC1 cells was not above 0.05 µM throughout.
